37 compounds from US8173635B2, “Kinase inhibitors” (Vertex Pharmaceuticals Incorporated, priority 2007, dated 2012) can be followed below.

Common to all, as to type: biochemical
One experiment has as its target PKC alpha kinase (Homo sapiens, UniProt P17252). Put plainly: PKC alpha kinase inhibition, coupled-enzyme NADH absorbance assay (Ki). Conditions: 130 μM ATP, 4.5 nM PKC alpha, 30° C.; read-out: Ki PKC alpha. How it is done:
An assay buffer solution was prepared which consisted of 100 mM HEPES (pH 7.5), 10 mM MgCl2, 25 mM NaCl, 0.1 mM EDTA, 100 μM CaCl2 and 0.01% Brij. […] To 16 μL of this enzyme buffer, in a 384 well plate, was added 1 μL of VRT stock solution in DMSO. The mixture was allowed to equilibrate for 10 mins at 30° C. The enzyme reaction was initiated by the addition of 16 μL stock ATP solution prepared in assay buffer to a final assay concentration of 130 μM. Initial rate data was determined from the rate of change of absorbance at 340 nm (corresponding to stoichiometric consumption of NADH) using a Molecular Devices Spectramax plate reader (Sunnyvale, Calif.) over 15 mins at 30° C. […] Ki values were calculated from initial rate data by non-linear regression using the Prism software package (Prism 4.0a, Graphpad Software, San Diego, Calif.).

The target in the next experiment is PKC delta kinase (Homo sapiens, UniProt Q05655). Put plainly: PKC delta kinase inhibition, coupled-enzyme NADH absorbance assay (Ki). The settings on record: 150 μM ATP, 46 nM PKC delta, 30° C.; read-out: Ki PKC delta. As to the method:
An assay buffer solution was prepared which consisted of 100 mM HEPES (pH 7.5), 10 mM MgCl2, 25 mM NaCl, 0.1 mM EDTA and 0.01% Brij. […] To 16 μL of this enzyme buffer, in a 384 well plate, was added 1 μL of VRT stock solution in DMSO. The mixture was allowed to equilibrate for 10 mins at 30° C. […] Ki values were calculated from initial rate data by non-linear regression using the Prism software package (Prism 4.0a, Graphpad Software, San Diego, Calif.).

Another experiment has as its target PKC theta kinase (Homo sapiens, UniProt Q04759). Put plainly: PKC theta kinase inhibition, coupled-enzyme NADH absorbance assay (Ki). The settings on record: 240 μM ATP, 18 nM PKC theta, 30° C.; read-out: Ki PKC theta. How it is done:
An assay buffer solution was prepared which consisted of 100 mM HEPES (pH 7.5), 10 mM MgCl2, 25 mM NaCl, 0.1 mM EDTA and 0.01% Brij. […] To 60 μL of this enzyme buffer, in a 384 well plate, was added 2 μL of VRT stock solution in DMSO. The mixture was allowed to equilibrate for 10 mins at 30° C. […] Ki values were calculated from initial rate data by non-linear regression using the Prism software package (Prism 4.0a, Graphpad Software, San Diego, Calif.).

Where only a bound is given, the exact number is not on record here.

Sequence of PKC theta kinase (Q04759 whole entry): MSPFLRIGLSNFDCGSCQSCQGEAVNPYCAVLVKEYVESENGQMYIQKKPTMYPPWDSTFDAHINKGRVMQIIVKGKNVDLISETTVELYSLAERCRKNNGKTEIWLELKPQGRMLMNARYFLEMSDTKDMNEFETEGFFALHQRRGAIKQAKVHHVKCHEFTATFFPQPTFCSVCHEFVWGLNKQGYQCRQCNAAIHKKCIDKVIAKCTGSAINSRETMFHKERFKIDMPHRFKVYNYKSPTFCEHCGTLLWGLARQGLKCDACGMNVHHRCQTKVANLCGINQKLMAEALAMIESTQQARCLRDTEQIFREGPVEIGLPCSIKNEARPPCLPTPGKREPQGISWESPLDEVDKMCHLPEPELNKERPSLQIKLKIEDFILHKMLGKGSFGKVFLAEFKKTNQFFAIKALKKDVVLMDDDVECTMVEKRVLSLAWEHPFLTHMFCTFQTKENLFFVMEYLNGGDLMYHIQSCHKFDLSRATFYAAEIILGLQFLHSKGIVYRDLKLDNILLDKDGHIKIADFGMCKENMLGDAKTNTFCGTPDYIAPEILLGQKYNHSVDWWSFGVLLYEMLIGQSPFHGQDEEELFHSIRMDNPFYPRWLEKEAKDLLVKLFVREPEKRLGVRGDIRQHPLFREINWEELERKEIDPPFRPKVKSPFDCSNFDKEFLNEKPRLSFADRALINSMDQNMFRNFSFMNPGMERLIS
Sequence of PKC delta kinase (Q05655 whole entry): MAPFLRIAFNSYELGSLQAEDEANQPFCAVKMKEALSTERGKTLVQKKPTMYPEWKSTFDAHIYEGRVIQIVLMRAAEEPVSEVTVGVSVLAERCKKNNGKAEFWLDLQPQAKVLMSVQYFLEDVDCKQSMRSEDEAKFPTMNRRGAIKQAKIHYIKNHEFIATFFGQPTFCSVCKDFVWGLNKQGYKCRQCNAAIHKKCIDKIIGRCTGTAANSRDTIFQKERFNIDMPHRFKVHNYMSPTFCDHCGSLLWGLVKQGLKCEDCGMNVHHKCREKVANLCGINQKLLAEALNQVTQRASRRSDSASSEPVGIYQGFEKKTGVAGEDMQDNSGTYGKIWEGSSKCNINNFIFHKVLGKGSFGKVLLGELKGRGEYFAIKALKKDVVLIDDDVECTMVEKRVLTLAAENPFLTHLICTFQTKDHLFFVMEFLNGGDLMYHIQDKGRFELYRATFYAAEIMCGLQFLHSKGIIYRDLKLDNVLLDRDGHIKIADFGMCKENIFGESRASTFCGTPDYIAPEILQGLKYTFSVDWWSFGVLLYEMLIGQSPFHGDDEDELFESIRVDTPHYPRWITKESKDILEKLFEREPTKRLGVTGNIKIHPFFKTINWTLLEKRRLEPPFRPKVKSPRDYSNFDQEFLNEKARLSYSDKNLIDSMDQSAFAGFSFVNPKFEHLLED

For the compound `Cc1cnc2[nH]ncc2c1-c1cccc(C(C)(C)C#N)c1` [Compound 219], the Ki at PKC alpha kinase is greater than 1200 nM; on PKC delta kinase, greater than 2000 nM; at PKC theta kinase, greater than 700 nM.
In the case of `N#CC1(c2cccc(-c3ccnc4[nH]nc(C(F)(F)F)c34)c2)CC1` [Compound 273], the Ki at PKC alpha kinase is less than 500 nM; at PKC delta kinase, less than 500 nM; at PKC theta kinase, less than 50 nM.
In the case of `NCc1cccc(-c2ccnc3[nH]nc(C(F)(F)F)c23)c1` [Compound 294], the Ki on PKC alpha kinase was greater than 1200 nM; at PKC delta kinase, greater than 1200 nM; at PKC theta kinase, less than 500 nM.
Turning to `CCC(C)(C#N)c1cc(-c2ccnc3[nH]ncc23)cc(C(C)(F)F)c1` (stereo not drawn) [Compound 111], the results for the Ki on PKC alpha kinase, at PKC delta kinase and at PKC theta kinase were less than 500 nM, less than 2800 nM and less than 50 nM, respectively.
The like results for `CCC(C)(CN)c1cc(-c2ccnc3[nH]ncc23)cc(C(F)(F)F)c1` (stereo not drawn) [Compound 139] were, in that order, less than 500 nM, less than 500 nM and less than 50 nM.
On the same counts, the results for `CCC(C)(C#N)c1cc(C)cc(-c2ccnc3[nH]ncc23)c1` (stereo not drawn) [Compound 89] are less than 2800 nM, less than 2800 nM and less than 500 nM.
On the same counts, the results for `CCC1(c2cccc(-c3ccnc4[nH]ncc34)c2)CNC(=O)O1` (stereo not drawn) [Compound 254] are less than 500 nM, less than 500 nM and less than 50 nM.
Take `CC(C)(C#N)c1cc(NCCCN)cc(-c2ccnc3[nH]ncc23)c1` [Compound 21]: the Ki at PKC alpha kinase was greater than 2800 nM; at PKC delta kinase, greater than 2800 nM; on PKC theta kinase it was less than 500 nM.
Take `N#CC1(c2cc(CCCO)cc(-c3ccnc4[nH]nc(C(F)(F)F)c34)c2)CC1` [Compound 312]: the Ki at PKC alpha kinase was less than 500 nM; at PKC delta kinase, less than 2800 nM; on PKC theta kinase it was less than 50 nM.
On the same counts, the results for `Cc1cc(-c2ccnc3[nH]nc(C(F)(F)F)c23)cc(C2(CN)CCC2)c1` [Compound 215] are less than 500 nM, less than 500 nM and less than 50 nM.
The like results for `CCc1n[nH]c2nccc(-c3cccc(C(C)(CC)CN)c3)c12` (stereo not drawn) [Compound 264] were, in that order, less than 50 nM, less than 50 nM and less than 50 nM.
On the same counts, the results for `CCC1(c2cccc(-c3ccnc4[nH]ncc34)c2)CCNC1` (stereo not drawn) [Compound 194] are less than 500 nM, less than 500 nM and less than 50 nM.
As for `Cc1cc(-c2ccnc3[nH]nc(C(F)(F)F)c23)cc(C(C)(C)C#N)c1` [Compound 324], the values for the Ki at PKC alpha kinase, on PKC delta kinase and on PKC theta kinase were less than 500 nM, greater than 1200 nM and less than 50 nM, respectively.
Consider `NCC1(c2cccc(-c3ccnc4[nH]ncc34)c2)CCCC1` [Compound 50], for which the Ki on PKC alpha kinase is less than 2800 nM; on PKC delta kinase, less than 500 nM; at PKC theta kinase it was less than 50 nM.
The like results for `CCC(C)(CN)c1cccc(-c2ccnc3[nH]nc(C4CC4)c23)c1` (stereo not drawn) [Compound 266] were, in that order, less than 50 nM, less than 50 nM and less than 50 nM.
On the same counts, the results for `COC(CN)c1cc(C)cc(-c2ccnc3[nH]nc(C(F)(F)F)c23)c1` (stereo not drawn) [Compound 297] are less than 500 nM, less than 2800 nM and less than 50 nM.
In the case of `N#CC1(c2cc(-c3ccnc4[nH]ncc34)cc(C(F)(F)CN)c2)CC1` [Compound 122], the figures for the Ki on PKC alpha kinase, on PKC delta kinase and at PKC theta kinase were less than 2800 nM, less than 2800 nM and less than 50 nM, respectively.
`COCCC(CN)c1cccc(-c2ccnc3[nH]nc(C(F)(F)F)c23)c1` (stereo not drawn) [Compound 284]: the Ki on PKC alpha kinase is less than 2800 nM; at PKC delta kinase, less than 500 nM; at PKC theta kinase, less than 50 nM.
Regarding `Cc1cc(-c2ccnc3[nH]ncc23)cc(C2(C#N)CCC2)c1` [Compound 85], the Ki at PKC alpha kinase was less than 2800 nM; on PKC delta kinase it was greater than 2800 nM; at PKC theta kinase it was less than 50 nM.
The like results for `COCCC(C)(CN)c1cccc(-c2ccnc3[nH]nc(C(F)(F)F)c23)c1` (stereo not drawn) [Compound 285] were, in that order, less than 500 nM, less than 500 nM and less than 50 nM.
The like results for `Cc1cc(-c2ccnc3[nH]ncc23)cc(C(N)C2CC2(F)F)c1` (stereo not drawn) [Compound 250] were, in that order, less than 500 nM, less than 2800 nM and less than 500 nM.
The like results for `CCC(C#N)c1cc(C)cc(-c2ccnc3[nH]ncc23)c1` (stereo not drawn) [Compound 86] were, in that order, less than 2800 nM, greater than 2800 nM and less than 500 nM.
On to `COc1ccc(C2(C#N)CCC2)cc1-c1ccnc2[nH]ncc12` [Compound 221], for which the Ki on PKC alpha kinase is greater than 1200 nM; on PKC delta kinase, greater than 2000 nM; on PKC theta kinase it was greater than 700 nM.
As for `CC(C)CC(C)(CN)c1cccc(-c2ccnc3[nH]ncc23)c1` (stereo not drawn) [Compound 45], the Ki at PKC alpha kinase was less than 500 nM; at PKC delta kinase it was less than 500 nM; at PKC theta kinase, less than 50 nM.
Regarding `COC(CN)c1cc(C)cc(-c2ccnc3[nH]ncc23)c1` (stereo not drawn) [Compound 248], the results for the Ki on PKC alpha kinase, on PKC delta kinase and at PKC theta kinase were less than 2800 nM, less than 2800 nM and less than 500 nM, respectively.
Turning to `CC(C)(C#N)c1cc(NCCN)cc(-c2ccnc3[nH]ncc23)c1` [Compound 17], the values for the Ki on PKC alpha kinase, on PKC delta kinase and on PKC theta kinase were greater than 2800 nM, greater than 2800 nM and less than 500 nM, respectively.
In the case of `CCc1n[nH]c2nccc(-c3cc(CCCN)cc(C4(C#N)CC4)c3)c12` [Compound 302], the values for the Ki on PKC alpha kinase, at PKC delta kinase and at PKC theta kinase were less than 2800 nM, less than 500 nM and less than 50 nM, respectively.
On the same counts, the results for `CCC(C)(C#N)c1cc(-c2ccnc3[nH]ncc23)cc(C(F)(F)F)c1` (stereo not drawn) [Compound 93] are less than 2800 nM, less than 2800 nM and less than 500 nM.
For `CCC(CC)(CN)c1cccc(-c2ccnc3[nH]ncc23)c1` [Compound 47], the Ki at PKC alpha kinase is less than 500 nM; on PKC delta kinase, less than 500 nM; at PKC theta kinase it was less than 50 nM.
Take `NCC1(c2cc(-c3ccnc4[nH]ncc34)cc(C(F)(F)F)c2)CCC1` [Compound 140]: the Ki was less than 2800 nM on PKC alpha kinase, less than 2800 nM at PKC delta kinase and less than 500 nM on PKC theta kinase.
With `CCC(C)(C#N)c1cc(-c2ccnc3[nH]ncc23)cc(C(F)(F)CC2CCCCC2)c1` (stereo not drawn) [Compound 119], the Ki at PKC alpha kinase is greater than 1200 nM; at PKC delta kinase, greater than 2000 nM; on PKC theta kinase, greater than 700 nM.
On the same counts, the results for `C=CCc1cc(-c2ccnc3[nH]ncc23)cc(C(C)(C)C#N)c1` [Compound 67] are less than 2800 nM, greater than 2800 nM and less than 500 nM.
The like results for `C/C=C\c1cc(-c2ccnc3[nH]ncc23)cc(C(C)(C#N)CC)c1` (stereo not drawn) [Compound 94] were, in that order, greater than 2800 nM, greater than 2800 nM and less than 500 nM.
On to `CC(C)(C#N)c1cc(-c2ccc[nH]2)cc(-c2ccnc3[nH]ncc23)c1` [Compound 59], for which the Ki on PKC alpha kinase is greater than 2800 nM; on PKC delta kinase it was greater than 2800 nM; on PKC theta kinase, less than 500 nM.
Regarding `CCC(C)(CN)c1cc(CCCO)cc(-c2ccnc3[nH]ncc23)c1` (stereo not drawn) [Compound 156], the values for the Ki at PKC alpha kinase, at PKC delta kinase and on PKC theta kinase were less than 500 nM, less than 2800 nM and less than 50 nM, respectively.
As for `CCC(C)(C#N)c1cc(/C=C/C#N)cc(-c2ccnc3[nH]ncc23)c1` (stereo not drawn) [Compound 124], the Ki at PKC alpha kinase was greater than 1200 nM; at PKC delta kinase it was greater than 2000 nM; at PKC theta kinase, greater than 700 nM.
The like results for `CCc1cc(-c2ccnc3[nH]nc(C(F)(F)F)c23)cc(C2(CN)CCC2)c1` [Compound 272] were, in that order, less than 500 nM, less than 2800 nM and less than 50 nM.
